The compounds below were run on endogenous cellular STAT1 (phosphorylated at Tyr701) in NCI-H1373 cells (assay: Phospho-STAT1 (Tyr701) LANCE Ultra TR-FRET Detection Assay). Conditions: 48 hours, phospho-STAT1 (Tyr701) induction, read-out: NH1373 pSTAT1 EC50.
Format: cell-based
Experimental: Phospho-STAT1 (Tyr701 LANCE Ultra TR-FRET Detection Assay
d. LANCE Ultra phospho-STAT1 (Tyr701) kits are designed for the detection of phosphorylated STAT1 in cell lysates using a simple, homogeneous LANCE Ultra sandwich assay (Cat. #TRF4028M). This assay is intended for assessing compound induction of endogenous levels of cellular STAT1 (phosphorylated at Tyr701) in NCI-H1373 cells. The NCI-H1373 cells are cultured in RPMI 1640 media containing 10% heat inactivated FBS, GlutaMAX, 1% Penicillin-Streptomycin. An Echo acoustic liquid handler is used to transfer 60 nanoliters of compound dilutions using the Echo Qualified, 384-well polypropylene microplate clear flat bottom source plates into a Greiner (#781080) cell culture microplate. NCI-H1373 cells are seeded into these compound-spotted culture plates at 30,000 cells/well in a 60 uL volume in growth media. The plates are incubated in a 5% CO2 humidified incubator at 37° C. for 48 hours. […] After spinning the plate down at 300 rpm for 1 min, the plate is read on an EnVision plate reader set up for Eu3+ Cryptate and fluorescence emission is measured at two different wavelengths (665 nm and 620 nm). The HTRF ratio is then calculated […] for each well to determine the amount of pSTAT1 in the cell lysate, and the data is then normalized to 10 uM GS-1154611 positive and DMSO negative controls.

For C[C@@H](CCCn1ccc2cc(-c3ncc(C(F)(F)F)c(N)n3)c(F)cc2c1=O)Nc1cn[nH]c(=O)c1C(F)(F)F [Example 128, (S)-6-(4-amino-5-(trifluoromethyl)pyrimidin-2-yl)-7-fluoro-2-(4-((6-oxo-5-(trifluoromethyl)-1,6-dihydropyridazin-4-yl)amino)pentyl)isoquinolin-1(2H)-one], which EC50 is on record?
Its EC50 is 16.7 nM.

Same assay, conditions: Homo sapiens, NCI-H1373, 48 h, phospho-STAT1 (Tyr701) induction, read-out: NH1373 pSTAT1 EC50

How did the EC50 turn out when CC(C)(O)c1cnc(-c2cc3ccn(C[C@@H]4CCC[C@H](Nc5cn[nH]c(=O)c5C(F)(F)F)C4)c(=O)c3cc2F)nc1 [Example 284, 7-fluoro-6-(5-(2-hydroxypropan-2-yl)pyrimidin-2-yl)-2-(((1R,3S)-3-((6-oxo-5-(trifluoromethyl)-1,6-dihydropyridazin-4-yl)amino)cyclohexyl)methyl)isoquinolin-1(2H)-one] was run?
The EC50 was 51.7 nM.

Which EC50 does the source give for O=c1[nH]ncc(N[C@H](CCCn2ccc3cc(-c4ncc(C(F)(F)F)cn4)c(F)cc3c2=O)c2nnc(C3CC3)o2)c1C(F)(F)F [Example 476, 2-[(4R)-4-(5-cyclopropyl-1,3,4-oxadiazol-2-yl)-4-[[6-oxo-5-(trifluoromethyl)-1H-pyridazin-4-yl]amino]butyl]-7-fluoro-6-[5-(trifluoromethyl)pyrimidin-2-yl]isoquinolin-1-one] here?
Its EC50 is 20.3 nM.

For C[C@@H](CCCn1ccc2cc(-c3ccc(F)c(C(F)F)n3)c(F)cc2c1=O)Nc1cn[nH]c(=O)c1C(F)(F)F [Example 330, (S)-6-(6-(difluoromethyl)-5-fluoropyridin-2-yl)-7-fluoro-2-(4-((6-oxo-5-(trifluoromethyl)-1,6-dihydropyridazin-4-yl)amino)pentyl)isoquinolin-1(2H)-one], which EC50 is on record?
The EC50 was 1210 nM.

With Nc1nc(-c2cc3ncn(CCC[C@H](COC(F)F)Nc4cn[nH]c(=O)c4C(F)(F)F)c(=O)c3cc2F)ncc1C(F)F [Example 383, (R)-7-(4-amino-5-(difluoromethyl)pyrimidin-2-yl)-3-(5-(difluoromethoxy)-4-((6-oxo-5-(trifluoromethyl)-1,6-dihydropyridazin-4-yl)amino)pentyl)-6-fluoroquinazolin-4(3H)-one] as the compound, how does the EC50 read?
Its EC50 is 18.5 nM.

For Nc1cc(-c2cc3ccn(CCC[C@H](COC(F)F)Nc4cn[nH]c(=O)c4C(F)(F)F)c(=O)c3cc2F)cnc1C(F)(F)F [Example 400, (R)-6-(5-amino-6-(trifluoromethyl)pyridin-3-yl)-2-(5-(difluoromethoxy)-4-((6-oxo-5-(trifluoromethyl)-1,6-dihydropyridazin-4-yl)amino)pentyl)-7-fluoroisoquinolin-1(2H)-one], which EC50 is on record?
The EC50 was 56.8 nM.

How did the EC50 turn out when O=c1[nH]ncc(N[C@H]2CCC[C@@H]2CCn2ccc3cc(-c4ncc(C(F)(F)F)cn4)c(F)cc3c2=O)c1C(F)(F)F [Example 179, 7-fluoro-2-(2-((1R,2S)-2-((6-oxo-5-(trifluoromethyl)-1,6-dihydropyridazin-4-yl)amino)cyclopentyl)ethyl)-6-(5-(trifluoromethyl)pyrimidin-2-yl)isoquinolin-1(2H)-one] was run?
The EC50 was 4.03 nM.

How did the EC50 turn out when Nc1nc(-c2cc3ccn(CCC[C@H](COC(F)F)Nc4cn[nH]c(=O)c4C(F)(F)F)c(=O)c3cc2F)ncc1OC(F)F [Example 369, (R)-6-(4-amino-5-(difluoromethoxy)pyrimidin-2-yl)-2-(5-(difluoromethoxy)-4-((6-oxo-5-(trifluoromethyl)-1,6-dihydropyridazin-4-yl)amino)pentyl)-7-fluoroisoquinolin-1(2H)-one] was run?
Its EC50 is 7.35 nM.

Which EC50 does the source give for O=c1[nH]ncc(N[C@H](CCCn2ccc3cc(-c4ccc(C(F)F)cn4)c(F)c(F)c3c2=O)COC(F)F)c1C(F)(F)F [Example 406, (R)-2-(5-(difluoromethoxy)-4-((6-oxo-5-(trifluoromethyl)-1,6-dihydropyridazin-4-yl)amino)pentyl)-6-(5-(difluoromethyl)pyridin-2-yl)-7,8-difluoroisoquinolin-1(2H)-one] here?
Its EC50 is 1.72 nM.

— patent publication US12459922B2 (Gilead Sciences, Inc., priority 2022, dated 2025)
